The test system of experiment [1] is FDDKI mice and WT littermates. Put plainly: Novel object recognition (NOR) test after injection in the lateral ventricle. Format: in vivo.
The target of a further experiment is T1, APP (Homo sapiens, UniProt P05067).
T1 construct: expressed in transfected cells; host or cells: HeLa cells transfected with APP (HeLa-APP)
Nature of the experiment: α-Flag precipitation of Flagged peptides from HeLa/APP cells. The format is binding. The note with it: for binding to APP (co-precipitation): HeLa/APP cells, 40 μM Flagged peptide, 2 hours. On the procedure: (§1) FIG. 8A-8I. 4A BRI2-derived peptide binds APP and inhibits β-cleavage of APP. (A-B) HEK293-APP cells were incubated with the indicated peptides (N1, N2, […] are SEQ ID NOs: 2, 3, 4, 5, 6, 7, 8, and 9, respectively). β- and α-cleavage of APP were quantified by measuring sAPPβ and sAPPα in media by WB. WB of cell lysates detected APP and α-Tubulin. (C-E) WB analysis of lysates (L) or α-Flag IP (IP) from HeLa/APP cells incubated for 2 hours with Flagged peptides. […] (G) Biotinylated cells were cultured as in (C). The reduced and not reduced samples are indicated (+red and −red, respectively). Lysates (L), α-Flag IP eluted with Flag-peptide (E), eluted sample precipitated with streptavidin-beads [both the fraction unbound (U) and bound (B) to streptavidin-beads], were probed for APP in WB. (H) Purified β-secretase was incubated with fluorescent β-secretase substrate for 30 minutes, resulting in β-cleavage that could be detected by fluorescence increase. […] The data are shown as % of inhibition of β-secretase activity in samples without inhibitors. (I) Model of N3-2A/MoBA activity.
Precipitation with FLAG-peptides. To prepare brain cells, mouse brains were washed in PBS and minced in dissociation buffer. After sedimentation and filtration, dissociated cells were cultured in Neurobasal media. Cells incubated with Flagged-peptides were lysed and precipitated with Flag-M2-agarose-beads as described (Matsuda et al, 2005). Bound proteins were eluted with 100 μg/ml of FLAG peptide.
A BRI2-derived peptide binds APP and inhibits β-cleavage of APP. It was tested whether peptides spanning this domain duplicated BRI2's function. […] Next it was examined if N3-2A (SEQ ID NO:5) binds APP. HeLa-APP cells were cultured with or without N3-2A fused to a C-terminal Flag epitope (N3-2A-F). After 2 hrs of incubation, cell lysates were precipitated with α-Flag-agarose-beads and co-precipitated molecules were eluted with a Flag-peptide.

In another experiment the test system is β- and α-cleavage of APP. Nature of the experiment: APP processing in HEK293-APP cells, sAPPβ and sAPPα in media by Western blot. The note with it: for inhibition of APP processing: 25 μM (FIG. 8A) or 5 μM (FIG. 8B); for inhibition of β-cleavage of APP relative to N3: 5 μM, 8 hrs (FIG. 8B); for α-processing of APP (sAPPα in media) / β-cleavage of APP (sAPPβ in media): 25 μM, 8 hrs (FIG. 8A).

The test system of experiment [2] is hippocampal slices of FDDKI and WT mice (Schaeffer collateral pathway LTP). Put plainly: Long-term potentiation (LTP) in hippocampal slices perfused 60 min with test substance. Conditions: for reversal of LTP impairment in FDDKI mice: sixty minute perfusion; for reversal of LTP deficit in FDDKI mice: 60 min perfusion.
From the text: All data are shown as mean±s.e.m. Statistical tests included two-way ANOVA for repeated measures and t-test when appropriate.
A further experiment addresses γ-secretase. The note with it: two values given, not explained; cited from earlier work.
Experiment [3] concerns primary hippocampal neuron cultures. Conditions: cited from earlier work.
The subject of the next experiment is rat models of stroke. Conditions: cited from earlier work.
The target of the next experiment is T2, endogenous APP (Mus musculus, UniProt P12023).
T2 construct: endogenous in cells; host or cells: dissociated mouse brain cells cultured in Neurobasal media
T2 sequence (P12023 18-770): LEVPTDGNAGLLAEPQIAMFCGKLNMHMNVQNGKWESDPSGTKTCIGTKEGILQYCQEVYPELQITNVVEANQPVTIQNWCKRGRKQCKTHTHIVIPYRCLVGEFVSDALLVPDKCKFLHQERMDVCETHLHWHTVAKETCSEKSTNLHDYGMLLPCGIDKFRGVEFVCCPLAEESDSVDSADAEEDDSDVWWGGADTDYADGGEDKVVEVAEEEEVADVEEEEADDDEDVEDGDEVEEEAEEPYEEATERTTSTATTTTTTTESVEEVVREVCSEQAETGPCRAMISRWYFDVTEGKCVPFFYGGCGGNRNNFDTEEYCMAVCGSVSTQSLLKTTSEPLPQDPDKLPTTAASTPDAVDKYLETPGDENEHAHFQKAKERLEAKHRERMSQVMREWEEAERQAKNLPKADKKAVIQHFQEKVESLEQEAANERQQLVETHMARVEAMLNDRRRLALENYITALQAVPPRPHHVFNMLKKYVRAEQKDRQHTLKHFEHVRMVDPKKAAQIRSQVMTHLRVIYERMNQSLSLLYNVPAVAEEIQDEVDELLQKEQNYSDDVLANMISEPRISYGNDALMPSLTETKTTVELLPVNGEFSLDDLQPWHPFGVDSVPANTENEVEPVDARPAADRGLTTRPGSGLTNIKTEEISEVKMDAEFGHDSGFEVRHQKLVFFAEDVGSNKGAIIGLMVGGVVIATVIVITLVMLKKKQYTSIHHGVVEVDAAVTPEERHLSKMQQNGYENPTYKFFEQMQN
Put plainly: α-Flag precipitation of Flagged peptide from cultured brain cells. Format: binding. As to the method: as §1
Precipitation with FLAG-peptides. To prepare brain cells, mouse brains were washed in PBS and minced in dissociation buffer. After sedimentation and filtration, dissociated cells were cultured in Neurobasal media. […]

Another experiment has as its target T3, purified β-secretase (Homo sapiens, UniProt P56817).
T3 construct: purchased Invitrogen
Nature of the experiment: β-secretase FRET activity assay with purified enzyme. Format: biochemical. The note with it: fluorescent β-secretase substrate, 30 minutes.

Where [4] appears, read: FDDKI mice, 1 μl of PBS/500 μM in lateral ventricle, 1 hr before training and testing.
Setting [5] is: FDDKI mice, 1 μl of PBS/100 μM in lateral ventricle.

pIC50: −log10 of the molar value. Several values for one entry are separate records, joined by “and”; a condition that tells them apart may be missing. Equal entries are not always repeated. Starred links: 1 amine or outer side, 2 acyl side, 3 side chain; linkers in the order of their positions; H or OH if unused. Non-standard residues stand in square brackets, D forms with d. No end group written: not given here. *: point of attachment. E(OMe) = COC(=O)CC[C@H](N[*:1])C(=O)[*:2]; D(OMe) = COC(=O)C[C@H](N[*:1])C(=O)[*:2]; code Z = not defined here; Cbz = O=C(OCc1ccccc1)*; CH2F = FC*

T1 sequence (P05067 18-770): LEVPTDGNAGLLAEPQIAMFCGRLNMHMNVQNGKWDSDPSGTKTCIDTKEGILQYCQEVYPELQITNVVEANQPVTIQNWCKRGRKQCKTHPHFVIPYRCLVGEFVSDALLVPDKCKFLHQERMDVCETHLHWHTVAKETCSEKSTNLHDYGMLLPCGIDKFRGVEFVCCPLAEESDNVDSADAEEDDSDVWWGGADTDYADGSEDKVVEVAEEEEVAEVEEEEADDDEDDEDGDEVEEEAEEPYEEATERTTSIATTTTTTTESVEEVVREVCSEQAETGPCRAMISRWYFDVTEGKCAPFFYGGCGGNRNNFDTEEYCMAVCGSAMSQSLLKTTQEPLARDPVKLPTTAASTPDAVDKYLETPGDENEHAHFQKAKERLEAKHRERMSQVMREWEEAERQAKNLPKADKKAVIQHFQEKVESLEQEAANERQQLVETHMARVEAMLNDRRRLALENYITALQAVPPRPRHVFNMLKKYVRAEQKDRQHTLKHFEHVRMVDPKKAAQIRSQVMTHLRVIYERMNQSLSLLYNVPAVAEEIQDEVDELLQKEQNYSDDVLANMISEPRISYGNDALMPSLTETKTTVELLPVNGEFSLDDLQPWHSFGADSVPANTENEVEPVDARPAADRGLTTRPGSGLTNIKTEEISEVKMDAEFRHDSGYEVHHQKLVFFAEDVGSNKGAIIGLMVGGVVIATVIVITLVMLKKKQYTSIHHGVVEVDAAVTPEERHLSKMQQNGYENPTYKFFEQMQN
T3 sequence (P56817 46-501): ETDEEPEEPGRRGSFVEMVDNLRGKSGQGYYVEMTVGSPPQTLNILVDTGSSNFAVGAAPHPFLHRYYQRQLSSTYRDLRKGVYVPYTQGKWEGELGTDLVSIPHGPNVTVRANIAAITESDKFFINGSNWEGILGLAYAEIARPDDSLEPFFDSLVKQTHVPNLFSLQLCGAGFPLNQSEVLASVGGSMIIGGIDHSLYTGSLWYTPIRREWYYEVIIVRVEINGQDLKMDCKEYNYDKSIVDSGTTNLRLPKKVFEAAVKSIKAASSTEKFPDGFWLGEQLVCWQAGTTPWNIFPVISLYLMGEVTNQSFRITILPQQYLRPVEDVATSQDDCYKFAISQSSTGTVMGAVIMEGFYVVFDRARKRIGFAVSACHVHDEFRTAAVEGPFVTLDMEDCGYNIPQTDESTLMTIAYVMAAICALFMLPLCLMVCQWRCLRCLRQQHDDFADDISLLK
Method for purified β-secretase: WB of cell lysates detected APP and α-Tubulin. (C-E) WB analysis of lysates (L) or α-Flag IP (IP) from HeLa/APP cells incubated for 2 hours with Flagged peptides. […] (G) Biotinylated cells were cultured as in (C). The reduced and not reduced samples are indicated (+red and −red, respectively). […] The data are shown as % of inhibition of β-secretase activity in samples without inhibitors.
Method for β- and α-cleavage of APP: WB of cell lysates detected APP and α-Tubulin. […] The data are shown as % of inhibition of β-secretase activity in samples without inhibitors.
BRI2-derived peptides and APP processing. APP-transfected HEK293 cells were incubated with the indicated peptides for 8 hrs.

With “Z-D(OMe)-E(OMe)-V-D(OMe)-FMK [Z-DEVD-FMK]”, the “rescue of memory deficit of FDDKI mice (NOR)” value (from here on “rescue … (NOR)”) in [1] (setting [4]) was “does not”. Further, the “performance of WT animals (NOR)” value in experiment [1] (WT mice, 1 μl of PBS/500 μM in lateral ventricle) is listed as “nor altered performance of WT animals”.
For the compound “N3-4A-F: Flagged single amino acid N3 mutant (DDVAYCGLKY-{Flag epitope})”, in the experiment with APP, the “binding to APP (co-precipitation)” value was “did not bind APP”. In the experiment with β- and α-cleavage of APP, the “inhibition of APP processing” value is recorded as “do not inhibit APP processing”.
Consider “Z-L-E(OMe)-H-D(OMe)-FMK.TFA ({code Z}-L[E(OMe)]H[D(OMe)]-CH2F; reading uncertain; also: TFA salt, printed as Z-L-E(OMe)-H-D(OMe)-FMK.TFA) [Z-LEHD-FMK]”, for which, in experiment [1] (setting [4]), the “rescue … (NOR)” value was “transiently rescue this memory deficit”. Moreover, in experiment [2] (FDDKI slices, 2 μM), the “reversal of LTP impairment in FDDKI mice” value was “reverse LTP impairment in FDDKI mice”. Moreover, in [2] (WT untreated vs. WT treated with Z-LEHD-FMK), the “effect on LTP of WT mice” value was “does not alter LTP of WT mice”.
Consider `C[C@H](NC(=O)Cc1cc(F)cc(F)c1)C(=O)N[C@H]1N=C(c2ccccc2)c2ccccc2N(C)C1=O` [compound-E], for which the “rescue … (NOR)” value in [1] (FDDKI mice, 1 μl of PBS/300 nM compound-E) is recorded as “does not”; in [1] (FDDKI mice, ten-fold higher dose, 1 μl of PBS/3 μM compound-E), “did not correct the memory deficit of Danish mice”. In addition, the “performance of WT animals (NOR)” value in [1] (WT mice, 1 μl of PBS/300 nM compound-E) is “nor altered performance of WT animals”. In addition, in experiment [1] (WT mice, ten-fold higher dose, 1 μl of PBS/3 μM compound-E), the “memory of WT mice (NOR)” value is reported as “showed a trend, though not statistically significant, toward memory impairment”. The negative-log IC50 (pIC50) at γ-secretase was 9.52 and 9.62. In [2] (FDDKI slices, 1 nM), the “rescue of LTP defect in FDDKI samples” value is recorded as “does not rescue the LTP defect in FDDKI samples”. Besides, in experiment [2] (WT slices, compound-E 1 nM), the “effect on LTP of WT mice” value is recorded as “do not alter LTP of WT mice”.
With “Pen1-XBIR3: XIAP-BIR3 domain disulfide-linked to cell-penetrating peptide Penetratin1; specific inhibitor of active caspase-9”, the “persistence of therapeutic effect post injection” value in experiment [1] (FDDKI mice, NOR without treatments after 5 days of rest) is “at least 5 days”. Moreover, the “rescue … (NOR)” value in [1] (FDDKI mice, lateral ventricle, 2 μl of PBS/23 μM Pen1-XBIR3 or 2 μl of PBS/16 μM Pen1-CrmA, 1 h before training and testing) was “rescues this memory deficit”. The “therapeutic effect in NOR test repeated 5 days later” value in experiment [1] (FDDKI mice, no further treatments) is “still significant”. Besides, in experiment [1] (WT mice, 2 μl of PBS/23 μM Pen1-XBIR3 or 2 μl of PBS/16 μM Pen1-CrmA), the “memory in WT animals (NOR)” value is “Neither Pen1-XBIR3 nor Pen1-CrmA altered memory in WT animals”. In [3], the “caspase-9 dependent cell death” value is given as “inhibits caspase-9 dependent cell death”. In addition, the therapeutic effect entry with rat models of stroke (direct parenchymal or intranasal delivery, rat) is given as “therapeutically effective”. The “caspase-9 block after delivery to the CNS” value in the experiment on rat models of stroke (in vivo model of cerebral ischemia) is given as “blocks caspase-9”. Besides, the “functional protection against ischemia post-infarction” value with rat models of stroke (one dose) is 3 weeks.
On to “N3-2A-F: N3-2A fused to a C-terminal Flag epitope (DAVYYCGLKY-{Flag epitope})”, for which, in the experiment with APP, the “binding to APP (co-precipitation)” value was “binds mature APP”. Moreover, the “binding to endogenous APP” value with endogenous APP is on record as “binds endogenous APP”.
Consider “DAVYYCGLKY (FRAGMENT DIRECTED TO A HOMO SAPIENS PROTEIN) [N3-2A]”, for which the “rescue … (NOR)” value in experiment [1] (setting [5]) is listed as “transiently rescue this memory deficit”. Also, the “binding to β-CTF” value in the experiment with APP (HeLa/APP cells (FIG. 8C, D)) is given as “does not bind β-CTF”. Also, the “competition for binding to APP” value in the experiment with APP (untagged peptide added to media containing 40 μM N3-2A-F) was “could compete for binding to APP”. Also, the “inhibition of β-secretase activity” value in the experiment with purified β-secretase was “did not inhibit the activity of purified β-secretase”. Moreover, the “α-processing of APP” value in the experiment with β- and α-cleavage of APP (5 μM (FIG. 8B)) is given as “did not overtly inhibit α-processing of APP”. The “inhibition of β-cleavage of APP relative to N3” value with β- and α-cleavage of APP is “stronger inhibitor of APP processing by β-secretase”. Further, the “reversal of LTP deficit in FDDKI mice” value in experiment [2] (FDDKI slices, 10 nM) was “reversed the LTP deficit of FDDKI samples”; in experiment [2] (FDDKI slices, 1 μM), “reversed the LTP deficit of FDDKI samples”. In addition, the “effect on LTP of WT mice” value in experiment [2] (WT slices, 1 μM) was “does not alter LTP of WT mice”.
For “ILNEPSADAP (FRAGMENT DIRECTED TO HUMAN PROTEIN) [N6]”, the “inhibition of APP processing” value with β- and α-cleavage of APP is recorded as “does not inhibit APP processing”. Further, in experiment [2] (FDDKI slices, 1 μM), the “reversal of LTP deficit in FDDKI mice” value is on record as “does not rescue the LTP deficit”.
As for “DDVYYCGLKY (FRAGMENT DIRECTED TO A HOMO SAPIENS PROTEIN) [N3]”, in the experiment with β- and α-cleavage of APP, the “α-processing of APP (sAPPα in media)” value is “moderately decreased α-processing of APP” and the “β-cleavage of APP (sAPPβ in media)” value is recorded as “strongly reduced β-cleavage”.
For “DDVYYCGLKYIKDD (FRAGMENT DIRECTED TO HUMAN PROTEIN) [N8]”, in that order: “moderately decreased α-processing of APP” and “strongly reduced β-cleavage”.
Turning to β-secretase-inhibitor IV, in experiment [1] (setting [5]), the “rescue … (NOR)” value is on record as “transiently rescue this memory deficit”. Besides, the “rescue of LTP impairment in FDDKI mice” value in experiment [2] (FDDKI slices, 50 nM) is “rescues LTP impairment in FDDKI mice”. Besides, the “effect on LTP of WT mice” value in experiment [2] (WT slices, β-secretase inhibitor IV 50 nM) is reported as “do not alter LTP of WT mice”.
Turning to Cbz-Val-Ala-Asp(OMe)-CH2F [Z-VAD-FMK], the “reversal of LTP impairment in FDDKI mice” value in [2] (FDDKI slices, 10 μM) was “reverse LTP impairment in FDDKI mice”.
As for “ADVYYCGLKY (FRAGMENT DIRECTED TO HOMO SAPIENS PROTEIN) [N3-1A]”, in the experiment with β- and α-cleavage of APP, the “inhibition of β-cleavage of APP relative to N3” value is given as “stronger inhibitor of APP processing by β-secretase”.

The values are drawn from US20140314790A1, “CASPASE 9 INHIBITION AND BRI2 PEPTIDES FOR TREATING DEMENTIA” (ALBERT EINSTEIN COLLEGE OF MEDICINE OF YESHIVA UNIVERSITY, priority 2011, published 2014).
